Experiment [1] relates to α‐glucosidase. As to the kind of experiment: α-Glucosidase inhibitory assay (p-nitrophenyl-α-D-glucopyranoside, microplate reader). As to conditions: mean ± SEM, three independent experiments in triplicate. In kind it is biochemical. The method, then: After incubation (15 min, 37°C), the reaction was initiated by adding 20 μL of 2.5‐mM p‐nitrophenyl‐α‐D‐glucopyranoside. After an additional 15 min at 37°C, the reaction was stopped with 80 μL of 0.2‐M Na2CO3. The released p‐nitrophenol was quantified spectrophotometrically at λ 405 nm using a microplate reader. One set of mixtures prepared with an equivalent volume of methanol instead of the test samples was used as a control. Another set of mixtures prepared with an equivalent volume of phosphate buffer instead of the enzyme was used as a blank. The inhibition of the enzyme (%) was calculated according to the formula: […]. […] The results are summarized in Table 2 and expressed as the mean ± SEM for three independent experiments measured in triplicate.

For the next experiment, the system named is L6 myotube cells. The arrangement: method as in PMID 19548274. The conditions noted are these: cited from earlier work.
In experiment [2] the target is protein tyrosine phosphatase 1B (PTP1B). The conditions noted are these: cited from earlier work.
The test system of experiment [3] is GLUT4. As to the kind of experiment: GLUT4 translocation to plasma membrane fraction in C2C12 myotubes (Western blot). In kind it is cell-based, mouse. As to conditions: 5 μM, 24 h, C2C12 differentiated myotubes, vs DMSO control. The method, then:
The C2C12 cell line was incubated in containers with a surface area of 75 cm^2 (tissue‐culture treated) to 100% confluence in full serum DMEM High Glucose medium. Then the culture medium was changed to DMEM High Glucose medium, supplemented with antibiotics, and 2% horse serum (Biosera) to start the differentiation of myoblasts into myocytes. The medium was renewed every 2 days, and the formation of myocytes was observed using a microscope. After 6 days of differentiation, the culture medium was changed to DMEM High Glucose serum‐free medium, and the test compounds were added at a non‐toxic concentration of 5 μM dissolved in DMSO. The effect of the test compounds on the viability of C2C12 myocytes was determined using a WST‐1 kit (Roche, Basel, Switzerland), according to the manufacturer's manual. The final concentration of DMSO in the medium was 0.1% (v/v). […]
The effects of the test compounds on the protein expression of GLUT4 in the total cellular fraction and on GLUT4 translocation to the plasma membrane fraction were measured using PAGE and Western blot with specific antibodies. […]
To quantify the effects of the test compounds on GLUT4 expression and translocation, the optical densities (OD) of the corresponding bands shown by Western blot analysis were calculated and expressed as a ratio of ODGLUT4 / ODβ‐actin for GLUT4 expression in whole‐cell lysates. […]
(In general: Immunoblotting shows a protein as a band on a membrane.)

Experiment [4] concerns GLUT4. On the set-up: method as in PMID 17201692. As to conditions: 3T3-L1 adipocytes; cited from earlier work.
For experiment [5], the system named is α‐glucosidase. The conditions noted are these: cited from earlier work.

The IC50 is the concentration needed to halve the response being measured.

Structures are written as SMILES. “Also recorded” adds a separate entry of the source. Where two headings read alike, the source gives them in different places.

Consider `CC1CC=C(C(C)(C)OOC23CC(C)CC=C2C(C)(C)OO3)C(=O)C1` (centres unmarked) [Compound 1, ziziphora diperoxy dimer], for which, in the experiment on α‐glucosidase [1], the “% of inhibition (200 μM)” value was 6.0 ± 1.9% and the IC50 is > 200 µM.

On to `CC1=C2C=C3CCC4C(C)(C)CCC[C@@]4(C)C3CC2OC1=O` (some centres unmarked) [Compound 2, jolkinolide E], for which, in the experiment on α‐glucosidase [1], the “% of inhibition (200 μM)” value is on record as 25.0 ± 1.4% and the IC50 was > 200 µM.

In the case of `C=C(C)[C@@H]1CC[C@]2(CO)CC[C@]3(C)[C@H](CC[C@@H]4[C@@]5(C)CC[C@H](O)C(C)(C)[C@@H]5CC[C@]43C)[C@@H]12` [Compound 3, betulin], in the experiment on α‐glucosidase [1], the “% of inhibition (200 μM)” value came to 24.0 ± 6.0% and the half-maximal inhibitory concentration (IC50) is > 200 µM.

In the case of `C=C(CO)[C@@H]1CC[C@]2(C(=O)O)CC[C@]3(C)C(CCC4[C@@]5(C)CC[C@H](O)C(C)(C)C5CC[C@]43C)C12` (some centres unmarked) [Compound 4, 30‐hydroxybetulinic acid], in the experiment with α‐glucosidase [1], the “% of inhibition (200 μM)” value was 34.0 ± 4.9% and the IC50 was > 200 µM.

Regarding `C[C@@H]1CC[C@]2(C(=O)O)CC[C@]3(C)C(=CC[C@@H]4[C@@]5(C)CC[C@H](O)C(C)(C)[C@@H]5CC[C@]43C)[C@@H]2[C@]1(C)O` [Compound 5, pomolic acid], in the experiment with L6 myotube cells, the “2-deoxy-D-[3H]-glucose uptake increase” value was 1.6 fold. Besides, in the experiment with α‐glucosidase [1], the “% of inhibition (200 μM)” value is 41.9 ± 4.1% and the IC50 is > 200 µM. The IC50 in experiment [2] (read-out: PTP1B IC50) is 3.9 ± 0.8 µM. Further, in the experiment on GLUT4 [3], the “GLUT4 translocation (GLUT4/ATPA1 ratio in plasma membrane fraction)” value was “increased; also recorded: tripling”.

Turning to `C[C@@H]1[C@H](O)C[C@]2(C(=O)O)CC[C@]3(C)C(=CCC4[C@@]5(C)CC[C@H](O)C(C)(C)C5CC[C@]43C)C2[C@H]1C` (stereo partly drawn) [Compound 6, 21α‐hydroxyursolic acid], in the experiment on α‐glucosidase [1], the “% of inhibition (200 μM)” value is given as 26.8 ± 2.1% and the half-inhibitory concentration (IC50) was > 200 µM.

`C[C@@H]1CC[C@]2(C(=O)O)CC[C@]3(C)C(=CC(=O)C4[C@@]5(C)CC[C@H](O)C(C)(C)C5CC[C@]43C)C2[C@H]1C` (some centres unmarked) [Compound 7, 11‐oxoursolic acid] showed a half-maximal inhibitory concentration (IC50) against α‐glucosidase [1] of 163 ± 15.4 µM.

As for `CC1(C)CC[C@]2(C(=O)O)CC[C@]3(C)C(=CC(=O)C4[C@@]5(C)CC[C@H](O)C(C)(C)C5CC[C@]43C)C2C1` (some centres unmarked) [Compound 8, 11‐oxooleanolic acid], in the experiment with α‐glucosidase [1], the “% of inhibition (200 μM)” value is listed as 49.9 ± 3.3% and the half-maximal inhibitory concentration (IC50) was > 200 µM.

On to `C[C@H]1[C@H](C)CC[C@]2(C(=O)O)CC[C@]3(C)C(=CC[C@@H]4[C@@]5(C)CC[C@H](O)C(C)(C)[C@@H]5CC[C@]43C)[C@H]12` [Compound 9, ursolic acid], for which the “2-deoxy-D-[3H]-glucose uptake increase” value with L6 myotube cells is recorded as 1.84 fold. In addition, the “Translocation of GLUT4” value with GLUT4 [4] is “enhanced”. Moreover, the “% of inhibition (200 μM)” value in the experiment on α‐glucosidase [1] worked out at 65.7 ± 4.1%. Further, the IC50 in experiment [2] (read-out: PTP1B IC50) is 3.1 ± 0.2 µM.

For the compound `CC1(C)CC[C@]2(C(=O)O)CC[C@]3(C)C(=CC[C@@H]4[C@@]5(C)CC[C@H](O)C(C)(C)[C@@H]5CC[C@]43C)[C@@H]2C1` [Compound 10, oleanolic acid], the “% of inhibition (200 μM)” value in the experiment with α‐glucosidase [1] is on record as 67.5 ± 1.4%.

In the case of `C=C(C)[C@@H]1CC[C@]2(C(=O)O)CC[C@]3(C)[C@H](CC[C@@H]4[C@@]5(C)CC[C@H](O)C(C)(C)[C@@H]5CC[C@]43C)[C@@H]12` [Compound 11, betulinic acid], in the experiment with α‐glucosidase [1], the “% of inhibition (200 μM)” value is on record as 64.4 ± 2.0% and half-maximal inhibition (IC50) required 45.3 ± 1 µM. Moreover, the “PTP1B IC50” value in experiment [2] was 0.7 ± 0.03 µg/mL. In experiment [2] (conversion of the μg/mL value, read-out: PTP1B IC50 (converted to μM)), the 50% inhibitory concentration (IC50) is 1.53 µM. The “GLUT4 translocation (GLUT4/ATPA1 ratio in plasma membrane fraction)” value in the experiment with GLUT4 [3] is recorded as “no activity”.

For the compound `CC1(C)[C@@H](O)CC[C@]2(C)[C@H]3C(=O)C=C4[C@@H]5C[C@@](C)(C(=O)O)CC[C@]5(C)CC[C@@]4(C)[C@]3(C)CC[C@@H]12` [glycyrrhetic acid], the α-Glucosidase inhibitory activity entry in the experiment with α‐glucosidase [5] was “inactive”.

The record behind these values is article PMC12129716, “Isolation of a Unique Monoterpene Diperoxy Dimer From Ziziphora clinopodioides subsp. bungeana Together With Triterpenes With Antidiabetic Properties” (Phytochemical Analysis, 2025).
